Measurements published in patent US20180325840A1, “COMPOSITIONS AND METHODS FOR PREVENTING OR TREATING FATTY PANCREAS OR AMELIORATING PANCREAS DISEASES CAUSED BY FATTY PANCREAS, DIABETES MELLITUS OR OTHER RELATED DISORDERS” (NATIONAL DEFENSE EDUCATION AND RESEARCH FOUNDATION, priority 2015, published 2018).

How the values were obtained:
Assay type in all cases: in vivo
B6 mice [1] = assay: Serum (plasma) triglyceride (TG) in high-fat diet mice; conditions: 1.5 mg/kg, 4 weeks of administration
Method: (§1) The experimental animals employed were B6 mice. The number of test animals in each group of the pre-test was four or more, and the number of test animals in each group of the confirmation test was twelve or more. Male mice having a weight of 18 to 23 g were bred in an animal room with a normal light and dark cycle (7:00 am to 7:00 pm being the bright period, and the rest being the dark period) at a temperature of 23±2° C. and a relative humidity of 55±15%. After the animals were purchased from Lesco Biotech Co., Ltd. (Taipei) and housed at the National Defense Animal Center, the animal experiments were conducted following the Experimental Guide of National Health Research Institute. First, the animals were fed with 3-5 grams of general diet daily, and the water was supplied infinitely. After 1 to 2 weeks of breeding, the healthy state was observed. The body weight was recorded once a week.
(§2) The test animals were randomly grouped into blank control (Blank), high-fat control (HFD), positive control (PS), and test group. The blank control was given a normal diet; the high-fat control was given a high-fat diet; the positive control was given a high-fat diet and tube fed with silymarin (5 mg/kg/day) (Iranian Journal of Pharmaceutical Research (2016), 15 (3): 493-500; Life Sciences 75 (2004) 2167-2180; and Pharm Biol. 2016 Jul. 8:1-6); and the test group was given a high-fat diet and tube fed with the test ingredient individually.
(§3) The blank control was fed with a normal diet arbitrarily for 12 weeks. The high-fat control, the positive control, and the test group were fed with a high-fat diet arbitrarily for 12 weeks. After 8 weeks of feeding, the blank control and the high-fat control were tube fed with deionized water once a day. The positive control was tube fed with silymarin once a day. The test group was tube fed with test compound(s) once a day for 4 weeks.
Before the start of the test and at the 8th and 12th week after the start of the test, blood was collected from the cheek or heart. All the animals were weighed and then sacrificed at the end of the test, and blood was collected from the cheek or heart again. The blood samples of mice were allowed to stand at room temperature for 1 hour to coagulate, and then centrifuged at 15,700×g by a frozen centrifuge at 4° C. for 5 minutes to separate the serum.
1.4.1 Analysis of Serum Triglyceride (TG) and Total Cholesterol (TCHO, TC)
Triglyceride (TG) and total cholesterol (TCHO, TC) in the serum were measured by the automatic blood biochemical analyzer.
(§4) All data were expressed as mean±standard deviation (SD), and the test results were calculated using the ANOVA test method to determine whether there was a statistically significant difference by using the Statistical Package of the Social Science program (Version 13, SPSS Inc.) software package. Subsequently, post hoc test least significant difference method was used to perform multiple comparisons to confirm the significant differences between the groups. The significant difference between the averages of the groups was p<0.05.

B6 mice [2] = assay: Blood glucose analysis (GLU) in high-fat diet mice
Method: as §1, §2, §3
1.4.2 Analysis of Biochemical Functions of the Pancreas: Blood Glucose Analysis (GLU)
Blood glucose analysis was performed with Roche's ACCU-CHEK Active blood glucose meter. One day before blood collection, mice were fasted overnight. The code card of the blood glucose test paper was inserted into the blood glucose meter, and then the blood glucose test paper was inserted. After the blood drop pattern appeared on the meter, a drop of blood was taken from in vein at the cheek of the mouse with a buccal needle and then dropped into the blood glucose test paper. The blood glucose data shown on the blood glucose meter were recorded.
as §4

B6 mice [3] = assay: Triglyceride (TG) and total cholesterol (TC) in pancreatic tissue of high-fat diet mice; conditions: 1.5 mg/kg tube fed once a day, 4 weeks of administration
Method: as §1, §2, §3
1.4.6 Analysis of Triglyceride (TG) and Total Cholesterol (TCHO, TC) in Pancreatic Tissue
After the mice were sacrificed, the pancreas was taken out and weighed to compare the ratios of pancreas weight to body weight. The remaining pancreas was frozen and preserved, and the contents of triglyceride and the total cholesterol in the pancreas were measured.
as §4

B6 mice [4] = assay: Intraperitoneal glucose tolerance test (IPGTT) in high-fat diet mice
Method: as §1, with “Male mice having a weight of 18 to 23 g were bred in an animal room with a normal light and dark cycle (7:00 am to 7:00 pm being the bright period, and the rest being the dark period) at a temperature of 23±2° C. and a relative humidity of 55±15%.” left out
The test animals were randomly grouped into blank control (Blank), high-fat control (HFD), positive control (PS), and test group.
as §3
1.4.3 Analysis of Biochemical Functions of the Pancreas: Intraperitoneal Glucose Tolerance Test (IPGTT)
The mice were moved into a clean cage and fasted overnight. There was no food or feces at the feeding funnel or the bottom of the clean cage to ensure that the animals may get drinking water at all times. The body weight of the mice was measured, and the volume of the glucose solution required for intraperitoneone (IP) injection was calculated (based on a concentration of 250 mg/mL and 2 g of glucose per kg of mouse weight, the volume (μl) required would be 8× body weight (g)). The mice were moved out and injected intraperitoneally with an appropriate amount of glucose solution, and the injection time was recorded. Blood samples were taken from the tail of the mice at 0, 15, 30, 60, 120 and 150 minutes after the glucose solution was injected. The concentration of blood glucose was measured, and the blood glucose analysis was performed using the Roche's ACCU-CHEK Active blood glucose meter.
as §4

B6 mice [5] = assay: Homeostasis model assessment of insulin resistance (HOMA-IR) in high-fat diet mice
Method: as §1, §2, §3
1.4.5 Analysis of Biochemical Functions of the Pancreas: Homeostasis Model Assessment of Insulin Resistance (HOMA-IR)
The mice were fasted to collect the blood at the end of the test (at the twelfth week), and the concentrations of blood glucose and insulin were measured and calculated according to the following formula: […]
as §4

B6 mice [6] = assay: Fasting insulin concentration (ELISA) in high-fat diet mice
Method: as §1, §2, §3
1.4.4 Analysis of Biochemical Functions of the Pancreas: Analysis of Fasting Insulin Concentration
At the end of the test (at the twelfth week), the mice were fasted to collect the blood following the operation instructions of the mouse ultrasensitive insulin ELISA kit (ALPCO).
as §4

[7] = 1.5 mg/kg, 4 weeks of administration

CC1CCC(C(C)C)C(O)C1 (centres unmarked) [menthol]
TG (plasma triglyceride) (B6 mice [1]): 173.7 ± 56.7 mg/dL | GLU (B6 mice [2]; fasted overnight, 1.5 mg/kg, 4 weeks of administration): 125.7 ± 33.5 mg/dL | effect on GLU (in words) (B6 mice [2]; single test compound): significantly reduce | pancreatic TC (B6 mice [3]): 4.4 ± 0.9 mg/g pancreatic tissue | pancreatic TG (B6 mice [3]): 18.1 ± 18.3 mg/g pancreatic tissue | AUC of IPGTT (B6 mice [4]; 2 g/kg glucose IP, blood glucose vs. time, 1.5 mg/kg, 4 weeks of administration): 45.6 ± 4.8 g·h/dL | effect on sugar tolerance (IPGTT, in words) (B6 mice [4]; single test compound): significantly reduce | HOMA-IR (B6 mice [5]; [7]): 0.4 ± 0.4 | effect on insulin resistance (in words) (B6 mice [5]; single test compound): significantly reduce | fasting insulin concentration (B6 mice [6]; [7]): 1.2 ± 0.8 ng/mL | effect on fasting insulin concentration (in words) (B6 mice [6]; single test compound): significantly reduce
